Measurements published in US9499550B2 (BRISTOL-MYERS SQUIBB COMPANY, priority 2012, dated 2016).
Read-outs that look alike come from different tables or passages of the source.

Columns and labels:
[1] = tested on: HCV genotype 1a (H77 strain) replicon in HUH-7 cells; test: HCV replicon luciferase reporter assay, genotype 1a; assay type: cell-based; settings: Hepatitis C virus, Huh-7, 72 h, HCV genotype 1a replicon luciferase assay, 3 days incubation, range class, read-out: LE_1a (EC50, range)
Method in brief: (§1)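 Replicon inhibition for both genotypes was measured as Renilla luciferase signal (EnduRen, 7.5 μM final, 2 h) after 3-day, 37° C exposure of replicon-bearing HUH-7 cells in 4% FCS DMEM, 0.5% DMSO. The 1b construct carries S1179I; the 1a H77 construct carries P1496L and S2204I. Twenty-point, 3-fold dilutions were fitted four-parametrically for EC50, and CC50 was taken from multiplexed Cell Titer-Blue.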

[2] = tested on: HCV genotype 1b (Con1) replicon in HUH-7 cells; test: HCV replicon luciferase reporter assay, genotype 1b; assay type: cell-based; settings: Hepatitis C virus, Huh-7, 72 h, HCV genotype 1b replicon luciferase assay, 3 days incubation, range class, read-out: LE_1b (EC50, range)
Method in brief: as §1

SMILES	EC50 [1] [nM]	EC50 [2] [nM]	EC50 ([1]; GETYPE1A) [nM]	EC50 ([2]; GETYPE1B) [nM]
COc1ccc2c(O[C@@H]3C[C@H]4C(=O)N[C@]5(C(=O)NS(=O)(=O)C6(CF)CC6)C[C@H]5/C=C\CC[C@H](C)C[C@@H](C)[C@H](NC(=O)OC(C)(C)C)C(=O)N4C3)nc(N3CCCC3)nc2c1 [Compound 3013, tert-butyl ((2R,6S,7R,9S,13aS,14aR,16aS,Z)-14a-(((1-(fluoromethyl)cyclopropyl)sulfonyl)carbamoyl)-2-((7-methoxy-2-(pyrrolidin-1-yl)quinazolin-4-yl)oxy)-7,9-dimethyl-5,16-dioxo-1,2,3,5,6,7,8,9,10,11,13a,14,14a,15,16,16a-hexadecahydrocyclopropa[e]pyrrolo[1,2-a][1,4]diazacyclopentadecin-6-yl)carbamate]	4.82 to 103	4.82 to 103	–	–
COc1ccc2c(O[C@@H]3C[C@H]4C(=O)N[C@]5(C(=O)NS(=O)(=O)C6(CF)CC6)C[C@H]5/C=C\CC[C@@H](C)C[C@@H](C)[C@H](NC(=O)OC(C)(C)C)C(=O)N4C3)nc(N3CCCC3)nc2c1 [Compound 3014, tert-butyl ((2R,6S,7R,9R,13aS,14aR,16aS,Z)-14a-(((1-(fluoromethyl)cyclopropyl)sulfonyl)carbamoyl)-2-((7-methoxy-2-(pyrrolidin-1-yl)quinazolin-4-yl)oxy)-7,9-dimethyl-5,16-dioxo-1,2,3,5,6,7,8,9,10,11,13a,14,14a,15,16,16a-hexadecahydrocyclopropa[e]pyrrolo[1,2-a][1,4]diazacyclopentadecin-6-yl)carbamate]	4.82 to 103	< 5.46	–	–
COc1ccc2c(O[C@@H]3C[C@H]4C(=O)N[C@]5(C(=O)NS(=O)(=O)C6(CF)CC6)C[C@H]5/C=C\CC[C@@H](C)C[C@@H](C)[C@H](NC(=O)OC(C)(C)C)C(=O)N4C3)nc(OC)nc2c1 [Compound 3015, tert-butyl ((2R,6S,7R,9R,13aS,14aR,16aS,Z)-2-((2,7-dimethoxyquinazolin-4-yl)oxy)-14a-(((1-(fluoromethyl)cyclopropyl)sulfonyl)carbamoyl)-7,9-dimethyl-5,16-dioxo-1,2,3,5,6,7,8,9,10,11,13a,14,14a,15,16,16a-hexadecahydrocyclopropa[e]pyrrolo[1,2-a][1,4]diazacyclopentadecin-6-yl)carbamate]	< 5.46	< 5.46	–	–
COc1ccc2c(O[C@@H]3C[C@H]4C(=O)N[C@]5(C(=O)NS(=O)(=O)C6CC6)C[C@H]5/C=C\CC[C@H](C)C[C@@H](C)[C@H](NC(=O)OC(C)(C)C)C(=O)N4C3)nc(-c3ccc(OC(C)C)cc3)nc2c1 [Compound 3016, tert-butyl ((2R,6S,7R,9S,13aS,14aR,16aS,Z)-14a-((cyclopropylsulfonyl)carbamoyl)-2-((2-(4-isopropoxyphenyl)-7-methoxyquinazolin-4-yl)oxy)-7,9-dimethyl-5,16-dioxo-1,2,3,5,6,7,8,9,10,11,13a,14,14a,15,16,16a-hexadecahydrocyclopropa[e]pyrrolo[1,2-a][1,4]diazacyclopentadecin-6-yl)carbamate]	< 5.46	< 5.46	–	–
COc1ccc2c(O[C@@H]3C[C@H]4C(=O)N[C@]5(C(=O)NS(=O)(=O)C6CC6)C[C@H]5/C=C\CC[C@@H](C)C[C@@H](C)[C@H](NC(=O)OC(C)(C)C)C(=O)N4C3)nc(-c3ccc(OC(C)C)cc3)nc2c1 [Compound 3017, tert-butyl ((2R,6S,7R,9R,13aS,14aR,16aS,Z)-14a-((cyclopropylsulfonyl)carbamoyl)-2-((2-(4-isopropoxyphenyl)-7-methoxyquinazolin-4-yl)oxy)-7,9-dimethyl-5,16-dioxo-1,2,3,5,6,7,8,9,10,11,13a,14,14a,15,16,16a-hexadecahydrocyclopropa[e]pyrrolo[1,2-a][1,4]diazacyclopentadecin-6-yl)carbamate]	< 5.46	< 5.46	–	–
COc1ccc2c(O[C@@H]3C[C@H]4C(=O)N[C@]5(C(=O)NS(=O)(=O)C6(CF)CC6)C[C@H]5/C=C\CC[C@H](C)C[C@@H](C)[C@H](NC(=O)OC(C)(C)C(F)(F)F)C(=O)N4C3)nc(N3CCCC3)nc2c1 [Compound 3018, 1,1,1-trifluoro-2-methylpropan-2-yl((2R,6S,7R,9S,13aS,14aR,16aS,Z)-14a-(((1-(fluoromethyl)cyclopropyl)sulfonyl)carbamoyl)-2-((7-methoxy-2-(pyrrolidin-1-yl)quinazolin-4-yl)oxy)-7,9-dimethyl-5,16-dioxo-1,2,3,5,6,7,8,9,10,11,13a,14,14a,15,16,16a-hexadecahydrocyclopropa[e]pyrrolo[1,2-a][1,4]diazacyclopentadecin-6-yl)carbamate]	4.82 to 103	4.82 to 103	–	–
COc1ccc2c(O[C@@H]3C[C@H]4C(=O)N[C@]5(C(=O)NS(=O)(=O)C6(CF)CC6)C[C@H]5/C=C\CC[C@@H](C)C[C@@H](C)[C@H](NC(=O)OC(C)(C)C(F)(F)F)C(=O)N4C3)nc(N3CCCC3)nc2c1 [Compound 3019, 1,1,1-trifluoro-2-methylpropan-2-yl((2R,6S,7R,9R,13aS,14aR,16aS,Z)-14a-(((1-(fluoromethyl)cyclopropyl)sulfonyl)carbamoyl)-2-((7-methoxy-2-(pyrrolidin-1-yl)quinazolin-4-yl)oxy)-7,9-dimethyl-5,16-dioxo-1,2,3,5,6,7,8,9,10,11,13a,14,14a,15,16,16a-hexadecahydrocyclopropa[e]pyrrolo[1,2-a][1,4]diazacyclopentadecin-6-yl)carbamate]	4.82 to 103	< 5.46	–	–
COc1ccc2c(O[C@@H]3C[C@H]4C(=O)N[C@]5(C(=O)NS(=O)(=O)C6(CF)CC6)C[C@H]5/C=C\CC[C@@H](C)C[C@@H](C)[C@H](NC(=O)OC(C)(C)C(F)(F)F)C(=O)N4C3)nc(OC)nc2c1 [Compound 3020]	–	–	4.82 to 103	< 5.46
COc1ccc2c(O[C@@H]3C[C@H]4C(=O)N[C@]5(C(=O)NS(=O)(=O)C6CC6)C[C@H]5/C=C\CC[C@H](C)C[C@@H](C)[C@H](NC(=O)OC(C)(C)C(F)(F)F)C(=O)N4C3)nc(-c3ccc(OC(C)C)cc3)nc2c1 [Compound 3021, 1,1,1-trifluoro-2-methylpropan-2-yl((2R,6S,7R,9S,13aS,14aR,16aS,Z)-14a-((cyclopropylsulfonyl)carbamoyl)-2-((2-(4-isopropoxyphenyl)-7-methoxyquinazolin-4-yl)oxy)-7,9-dimethyl-5,16-dioxo-1,2,3,5,6,7,8,9,10,11,13a,14,14a,15,16,16a-hexadecahydrocyclopropa[e]pyrrolo[1,2-a][1,4]diazacyclopentadecin-6-yl)carbamate]	< 5.46	< 5.46	–	–
COc1ccc2c(O[C@@H]3C[C@H]4C(=O)N[C@]5(C(=O)NS(=O)(=O)C6CC6)C[C@H]5/C=C\CC[C@@H](C)C[C@@H](C)[C@H](NC(=O)OC(C)(C)C(F)(F)F)C(=O)N4C3)nc(-c3ccc(OC(C)C)cc3)nc2c1 [Compound 3022, 1,1,1-trifluoro-2-methylpropan-2-yl((2R,6S,7R,9R,13aS,14aR,16aS,Z)-14a-((cyclopropylsulfonyl)carbamoyl)-2-((2-(4-isopropoxyphenyl)-7-methoxyquinazolin-4-yl)oxy)-7,9-dimethyl-5,16-dioxo-1,2,3,5,6,7,8,9,10,11,13a,14,14a,15,16,16a-hexadecahydrocyclopropa[e]pyrrolo[1,2-a][1,4]diazacyclopentadecin-6-yl)carbamate]	< 5.46	< 5.46	–	–
CC[C@@H]1C[C@@H](C)CC/C=C\[C@@H]2C[C@@]2(C(=O)NS(=O)(=O)C2(C)CC2)NC(=O)[C@@H]2C[C@@H](Oc3nccc4c(OC)cccc34)CN2C(=O)[C@H]1NC(=O)OC(C)(C)C [Compound 3023, tert-butyl ((2R,6S,7R,9S,13aS,14aR,16aS,Z)-7-ethyl-2-((5-methoxyisoquinolin-1-yl)oxy)-9-methyl-14a-(((1-methylcyclopropyl)sulfonyl)carbamoyl)-5,16-dioxo-1,2,3,5,6,7,8,9,10,11,13a,14,14a,15,16,16a-hexadecahydrocyclopropa[e]pyrrolo[1,2-a][1,4]diazacyclopentadecin-6-yl)carbamate]	4.82 to 103	4.82 to 103	–	–
CC[C@@H]1C[C@H](C)CC/C=C\[C@@H]2C[C@@]2(C(=O)NS(=O)(=O)C2(C)CC2)NC(=O)[C@@H]2C[C@@H](Oc3nccc4c(OC)cccc34)CN2C(=O)[C@H]1NC(=O)OC(C)(C)C [Compound 3024, tert-butyl ((2R,6S,7R,9R,13aS,14aR,16aS,Z)-7-ethyl-2-((5-methoxyisoquinolin-1-yl)oxy)-9-methyl-14a-(((1-methylcyclopropyl)sulfonyl)carbamoyl)-5,16-dioxo-1,2,3,5,6,7,8,9,10,11,13a,14,14a,15,16,16a-hexadecahydrocyclopropa[e]pyrrolo[1,2-a][1,4]diazacyclopentadecin-6-yl)carbamate]	< 5.46	< 5.46	–	–
CC[C@@H]1C[C@@H](C)CC/C=C\[C@@H]2C[C@@]2(C(=O)NS(=O)(=O)C2CC2)NC(=O)[C@@H]2C[C@@H](Oc3nccc4c(OC)cccc34)CN2C(=O)[C@H]1NC(=O)OC(C)(C)C [Compound 3025, tert-butyl ((2R,6S,7R,9S,13aS,14aR,16aS,Z)-14a-((cyclopropylsulfonyl)carbamoyl)-7-ethyl-2-((5-methoxyisoquinolin-1-yl)oxy)-9-methyl-5,16-dioxo-1,2,3,5,6,7,8,9,10,11,13a,14,14a,15,16,16a-hexadecahydrocyclopropa[e]pyrrolo[1,2-a][1,4]diazacyclopentadecin-6-yl)carbamate]	4.82 to 103	4.82 to 103	–	–
